Here are results for eleven molecules from patent publication US11472811B2, “Pyrazolotriazolopyrimidine derivatives as A2A receptor antagonist” (BEIGENE, LTD., priority 2018, dated 2022).

The test addresses human A2A receptor (A2AR) (Homo sapiens (Human), UniProt P29274). Kind of test: Luciferase reporter assay (HEK293-A2AR-luc2p/CRE/Hygro cells). It is filed as cell-based. The conditions noted are these: 3 nM CGS21680, 5 h incubation. The method, then: HEK293 cells were maintained in Dulbecco's modified Eagle's medium (DMEM, Gibco) supplemented with 10% fetal bovine serum (FBS, Thermo Scientific), 100 units/mL penicillin (Gibco), and 0.1 mg/mL streptomycin (Gibco) in a humidified 37° C. environment with 5% CO2. Plasmid encoding wild-type human A2A receptor (A2AR) (in pcDNA3.1) was synthesized by Genscript (Nanjing, China). Transfection of the plasmids was performed in 6-well plates with 4×10^5 cells using Lipofectamin 2000 (ThermoFisher Scientific) according to the instruction of the manufacturer. Cell clones that stably express A2AR were established and maintained in the same complete medium as the HEK293 cells in addition of G-418 (Gibico). Expression level of A2AR in each single cell clone was determined using immunoblotting and FACS method. HEK293-A2AR stable cells were then transfected with pGL4.29[luc2P/CRE/Hygro] (Promega) luciferase reporter plasmid for establishing the HEK293-A2AR-luc2p/CRE/Hygro stable cell line.
HEK293-A2AR-luc2p/CRE/Hygro cells were seeded at a density of 5,000 cells/well in DMEM with 1% FBS and 1 U/mL adenosine deaminase (ADA) (Sigma). After 18 h, the cells were treated with 3 nM CGS21680 plus a series dilution of A2AR antagonist, the compounds disclosed herein at the concentration of 0.1˜10000 nM, prepared in DMEM with 1% FBS. After 5 h incubation, the luciferase activity in cells were measured using the Bright-Glo Luciferase Assay System (Promega) according to manufacturer's instructions. The luminescence signal was measured using a PHERAstar FS plate reader (BMG Labtech). […] Maximal luminescence intensity was determined in the presence of 3 nM CGS21680 and was set as 100%. The IC50 value was calculated from a dose dependent inhibition curve across the range of compound concentrations.
On the technique in general: Reporter assays use an easily measured gene product as a stand-in for the process of interest.

Sequence of human A2A receptor (A2AR) (P29274 whole entry): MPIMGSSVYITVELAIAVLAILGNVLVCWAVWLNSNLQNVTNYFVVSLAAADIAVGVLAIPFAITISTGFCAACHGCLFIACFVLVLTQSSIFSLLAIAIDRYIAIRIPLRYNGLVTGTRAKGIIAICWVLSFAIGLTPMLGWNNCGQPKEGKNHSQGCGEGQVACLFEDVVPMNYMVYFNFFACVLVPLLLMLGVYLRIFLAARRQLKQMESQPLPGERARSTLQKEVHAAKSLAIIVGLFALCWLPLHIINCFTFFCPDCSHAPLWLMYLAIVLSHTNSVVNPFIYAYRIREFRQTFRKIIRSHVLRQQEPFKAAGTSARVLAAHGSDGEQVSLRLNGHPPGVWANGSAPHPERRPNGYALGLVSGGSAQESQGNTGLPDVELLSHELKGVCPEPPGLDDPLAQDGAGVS

In turn, `CC(C(=O)N[C@H]1CC[C@@](C)(O)CC1)(c1ccccc1)n1ncc2c1nc(N)n1nc(-c3ccco3)nc21` (stereo partly drawn) [Example 33, 2-(5-amino-2-(furan-2-yl)-7H-pyrazolo[4,3-e][1,2,4]triazolo[1,5-c]pyrimidin-7-yl)-(trans)-N-(4-hydroxy-4-methylcyclohexyl)-2-phenylpropanamide] gave an IC50 of 8.4 nM. As for `Cc1ccnc(CNC(=O)[C@@](C)(c2ccccc2)n2ncc3c2nc(N)n2nc(-c4ccco4)nc32)c1` [Example 110B, (R)-2-(5-amino-2-(furan-2-yl)-7H-pyrazolo[4,3-e][1,2,4]triazolo[1,5-c]pyrimidin-7-yl)-N-((4-methylpyridin-2-yl)methyl)-2-phenylpropanamide], the half-maximal inhibitory concentration (IC50) turned out to be 2.9 nM. Against the preceding molecule, the IC50 is about 2.9-fold lower.

For the molecule `CC(C(=O)NCc1cccnc1)(c1ccccc1)n1ncc2c1nc(N)n1nc(-c3ccco3)nc21` (centres unmarked) [Example 84, 2-(5-amino-2-(furan-2-yl)-7H-pyrazolo[4,3-e][1,2,4]triazolo[1,5-c]pyrimidin-7-yl)-2-phenyl-N-(pyridin-3-ylmethyl)propenamide], half-maximal inhibition (IC50) required 17 nM.

Turning to `CC(C(=O)NCC1(O)CCOCC1)(c1ccccc1)n1ncc2c1nc(N)n1nc(-c3ccco3)nc21` (centres unmarked) [Example 80, 2-(5-amino-2-(furan-2-yl)-7H-pyrazolo[4,3-e][1,2,4]triazolo[1,5-c]pyrimidin-7-yl)-N-((4-hydroxytetrahydro-2H-pyran-4-yl)methyl)-2-phenylpropanamide], the IC50 was 9.4 nM.

In the case of `CC(C(=O)NCCN1CCNCC1)(c1ccccc1)n1ncc2c1nc(N)n1nc(-c3ccco3)nc21` (centres unmarked) [Example 45, 2-(5-amino-2-(furan-2-yl)-7H-pyrazolo[4,3-e][1,2,4]triazolo[1,5-c]pyrimidin-7-yl)-2-phenyl-N-(2-(piperazin-1-yl)ethyl)propanamide], the 50% inhibitory concentration (IC50) came to 22.4 nM. Compared with the last molecule, the IC50 is about 2.4-fold higher. The molecule `COCCOCCNC(=O)C(C)(c1ccccc1)n1ncc2c1nc(N)n1nc(-c3ccco3)nc21` (centres unmarked) [Example 75, 2-(5-amino-2-(furan-2-yl)-7H-pyrazolo[4,3-e][1,2,4]triazolo[1,5-c]pyrimidin-7-yl)-N-(2-(2-methoxyethoxy)ethyl)-2-phenylpropanamide] had a half-maximal inhibitory concentration (IC50) of 16.9 nM. To `CCC(C(=O)NCC1(O)COC1)(c1ccccc1)n1ncc2c1nc(N)n1nc(-c3ccco3)nc21` (centres unmarked) [Example 103, 2-(5-amino-2-(furan-2-yl)-7H-pyrazolo[4,3-e][1,2,4]triazolo[1,5-c]pyrimidin-7-yl)-N-((3-hydroxyoxetan-3-yl)methyl)-2-phenylbutanamide] belongs 6.1 nM; to `CC(C(=O)NCCC1CCOC1)(c1ccccc1)n1ncc2c1nc(N)n1nc(-c3ccco3)nc21` (centres unmarked) [Example 74, 2-(5-amino-2-(furan-2-yl)-7H-pyrazolo[4,3-e][1,2,4]triazolo[1,5-c]pyrimidin-7-yl)-2-phenyl-N-(2-(tetrahydrofuran-3-yl)ethyl)propanamide], 11.1 nM.

With `CC(C(=O)NCCc1ccccc1)(c1ccccc1)n1ncc2c1nc(N)n1nc(-c3ccco3)nc21` (centres unmarked) [Example 30, 2-(5-amino-2-(furan-2-yl)-7H-pyrazolo[4,3-e][1,2,4]triazolo[1,5-c]pyrimidin-7-yl)-N-phenethyl-2-phenylpropanamide], half-maximal inhibition (IC50) required 10.8 nM. The value for `CC(C(=O)N[C@H]1CCC[C@@H](O)C1)(c1ccccc1)n1ncc2c1nc(N)n1nc(-c3ccco3)nc21` (stereo partly drawn) [Example 123, 2-(5-amino-2-(furan-2-yl)-7H-pyrazolo[4,3-e][1,2,4]triazolo[1,5-c]pyrimidin-7-yl)-N-((1S,3R)-3-hydroxycyclohexyl)-2-phenylpropanamide] was 8.5 nM; that for `C[C@](C(=O)N[C@H]1CC[C@H](O)CC1)(c1ccccc1)n1ncc2c1nc(N)n1nc(-c3ccco3)nc21` [Example 52B, (R)-2-(5-amino-2-(furan-2-yl)-7H-pyrazolo[4,3-e][1,2,4]triazolo[1,5-c]pyrimidin-7-yl)-N-((trans)-4-hydroxycyclohexyl)-2-phenylpropanamide] was 5 nM.

For orientation: IC50 means the concentration needed to halve the response being measured. Low readings indicate higher potency, high ones lower potency.
